Where two headings read alike, the source gives them in different places.
Assays:
[1] = tested on: p-Ser97 of FLAG-DYRK1A; assay: p-Ser97 signal of FLAG-DYRK1A in HEK293 cells treated with phosphatase inhibitors; assay type: cell-based; settings: HEK293, with doxycycline 8 h
From the text: blotanalysisusing antibodies against p- Ser97 and FLAG. If Ser97 autophosphorylation were mediated by an intermolecular mechanism, then Ser97 of the kinase- dead K188R mutant would be phosphorylated when expressed in the presence of DD-FLAG-DYRK1A. However, in spite of the excess amount of DD- FLAG-DYRK1A, the phosphorylation of Ser97 in the kinase- dead mutant didnot increase compared toresults obtainedin the absence of DD- FLAG-DYRK1A.
Representative data from the triplicate experiments is shown.
(b) HEK293 cells harbouring the empty vector or the expression vector of DD -FLAG-DYRK1A with the bicistronic expression cassette of the kinase- dead FLAG- DYRK1A (K188R) and EGFP were incubated with Shield- 1 at the indicated concentrations for 16 h. After accumulation of DD- FLAG-DYRK1A, FLAG- DYRK1A (K188R) was expressed for 16 h in the presence of Shield- 1 and doxycycline. The kinase- dead FLAG- DYRK1A (K188R) didnot increase in the presence of DD- FLAG-DYRK1A, supporting the conclusion in (a).Representative data from the triplicate experiments is shown.
(c) p- Ser97 is susceptible to dephosphorylation in HEK293 cells. The HEK293 cells were treated with the indicated concentration of calyculin A, okadaic acid, and cantharidic acid in the presence of doxycycline for 8 h. The total cell lysates were subjected to immunoprecipitation using antibody against FLAG- tag. The immuno- precipitated FLAG- DYRK1A was detected using antibodies against p- Ser97 and FLAG- tag. […]
with cantharidic acid increased the p- Ser97 signal. In contrast, the treatment with calyculin A […]
which may indicate that calyculin A and okadaic acid inhibited dephosphorylation of other sites […]
phosphatases inhibited by these compounds have not been completely identified. Phosphatase(s) inhibited by cantharidic acid may play a role in dephosphorylation of p -Ser97 in the cells. […]
antibody- conjugated beads. […] Each protein was detected with the corresponding antibodies against p- Ser97 or FLAG. […]
(e) The band intensities in ( d) were quantified. […]

[2] = tested on: mature Drosophila DYRK2; design: method as in PMID 17188038; settings: cited from earlier work
[3] = tested on: transitional intermediate of Drosophila DYRK2; design: method as in PMID 17188038; settings: cited from earlier work
[4] = tested on: DYRK1B; assay: Rescue of Xenopus laevis embryos injected with DYRK1B mRNA; assay type: in vivo; settings: 2.5 μM
From the text: (§1) Uninjected embryos were used as controls. Development of the embryos was allowed to proceed to stage 40 in the dark. Representative images are shown. […] The results are the means±s.e.m. of triplicate experiments (n=55). (c) RT–PCR analysis of the neural marker genes in the head regions of the embryos at stage 25. Each of the marker genes indicates a specific region: NCAM for the pan-neural region, Brain Factor-1 (BF-1) for the forebrain, Pax-6 and Rx-1 for the eye, Otx-2 for the fore-midbrain, Engrailed-2 (En-2) for the mid-hindbrain and Krox-20 for the hindbrain. Ornithine decarboxylase (ODC) is an internal control.
(§2) DYRK1A and DYRK1B mRNA, which were synthesized from linearized vectors with the mMessage mMachine Kit (Life Technologies), were injected into two dorsal blastomeres at the eight-cell-stage for RT–PCR analysis and observation of the embryo phenotypes. […] The head regions of the injected embryos were dissected at the neural stage (stage 25) and the total RNA was isolated using TRIzol (Life Technologies). cDNA synthesis was carried out using Moloney murine leukaemia virus reverse transcriptase (Life Technologies). The sequences of the primer pairs were as follows[51][52]: NCAM, 5′-[…]-3′ and 5′-[…]-3′; Brain factor 1 (BF-1), 5′-[…]-3′ and 5′-[…]-3′; Pax-6, 5′-[…]-3′ and 5′-[…]-3′; Rx1, 5′-[…]-3′ and 5′-[…]-3′; Otx-2, 5′-[…]-3′ and 5′-[…]-3′; En-2, 5′-[…]-3′ and 5′-[…]-3′′; Krox-20, 5′-[…]-3′ and 5′-[…]-3′; ornithine decarboxylase (ODC), 5′-[…]-3′ and 5′-[…]-3′. No randomization was used, and no blinding was done.

[5] = tested on: DYRK1A; assay: Rescue of Xenopus laevis embryos injected with DYRK1A mRNA; assay type: in vivo; settings: 2.5 μM
From the text: as §1, §2

[6] = target: T1, DYRK1A (Homo sapiens, UniProt Q13627); assay: SPHINKS assay: TAU (Thr212) phosphorylation by induced DYRK1A in HEK293 cells, western blot; assay type: cell-based; design: expressed in transfected cells; host or cells: Flp-In/T-REx HEK293
Experimental: TAU was expressed in a fused form with the destabilization domain FKBP12 (DD), which causes degradation of DD fusion proteins in the absence of a small molecule, Shield-1 (ref. [26]).
To distinguish kinase inhibition at the transitional state from that after maturation, we set up two types of time courses. […] Following additional incubation with Shield-1 for 2 h, total cell lysates were harvested, then subjected to western blot.
Cells were then cultured 24 h later in the presence of 1 μg ml^−1 of doxycycline (Nacalai Tesque) for 16 h, then treated with 1 μM of Shield-1 (Clontech, Takara Bio) for 2 h. Small molecules from our chemical library were diluted in 1 ml of DMEM and 1% FBS, then administered into the cells at a final concentration of 10 μM (0.1% DMSO), as illustrated in Fig. 1a. Total cell lysates were prepared with SDS-urea buffer (50 mM Tris-HCl, pH 7.0, 1% SDS, 4 M urea, 10% glycerol, 20 mM dithiothreitol, 0.5 mg ml^−1 BSA), then analysed with SDS–polyacrylamide gel electrophoresis (SDS–PAGE) followed by western blot analysis using antibodies against phospho-TAU (pT212) (1/3,000) and total TAU (1/3,000) proteins (Supplementary Fig. 14).
Category Parameter Description
Assay Type of assay Cell-based
Measurement Detection of TAU phosphorylation mediated by
Key reagents Rabbit polyclonal antibody against phosphorylated
Mouse monoclonal antibody against TAU (TAU-5)
ProteoTuner Shield System (Clontech Laboratories)
pcDNA5/FRT/TO vector and Flp-In/T-REx293 cells
Assay protocol Described in the sections "Methods" and "Results"
Library Library size Approximately 200
Library composition Synthetic chemical compounds, including derivatives
Source Laboratory of Chemical Bioscience, Institute of
Biomaterials and Bioengineering, Tokyo Medical and
Screen Format 6-well plates (FALCON) coated with polyethylenimine
Screen Concentration(s) tested 10 µM (0.1% DMSO) in DMEM with 1%FBS
Reagent/ compound dispensing system Manual
Detection instrument and software Western blot using primary anti-phospho- TAU and […]
Chemiluminescence of HRP was detected by the […]

[7] = target: T2, human DYRK2 (Homo sapiens, UniProt Q92630); assay: RI-in vitro kinase assay with DYRKtide; assay type: biochemical; settings: DYRKtide substrate; Fig. 8b, n=4; read-out: IC50, kinase activity of recombinant DYRK2
T2 construct: His-tagged full-length human DYRK2 recombinant proteins; His; purchased Millipore

[8] = target: T3, 3xFLAG-DYRK1A / CDC37-nanoKAZ (Homo sapiens, UniProt Q13627); design: expressed in transfected cells; host or cells: 293T cells stably expressing CDC37-nanoKAZ; method as in PMID 26234946; settings: cited from earlier work
[9] = target: GST-DYRK1A-TS Y319E mutant (Homo sapiens, UniProt Q13627, Y319E); assay: biochemical; settings: ATP 100 μM
Experimental: The cells were cultured with IPTG (final 1 mM) for 24 h at 6 °C, then lysed with GET buffer (20 mM HEPES-KOH, pH 8.0, 150 mM NaCl, 1 mM EDTA, 2 mM dithiothreitol, 10% glycerol, 0.5% Empigen BB, 0.5% Triton X-100). Clarified cell lysates were loaded onto a Strep-Tactin Sepharose column (IBA) and the bound proteins were then eluted with GET buffer containing 2.5 mM desthiobiotin (IBA) and 1 mg ml^−1 BSA. The eluates were subsequently applied to GST-Accept resin (Nacalai Tesque). The resin was washed extensively, first with GET buffer, then with AR buffer (5 mM MOPS, pH7.2, 2.5 mM β-glycerol-phosphate, 5 mM MgCl2, 1 mM EGTA, 0.4 mM EDTA, 2 mM tris(2-carboxyethyl)phosphine). […] We then added 5 μl of 2 mg ml^−1 BSA to the suspension (final concentration of 0.1 mg ml^−1), followed by incubation at 37 °C for 30 min. […] The bound proteins were eluted with SDS-urea buffer, then analysed with SDS–PAGE followed by western blot (Supplementary Fig. 14).
The band intensities were measured using the ChemiDoc MP Imaging System (Bio-Rad). In Fig. 6d,e, the relative activity of the phosphorylation was calculated from the ATP-dependent increase in the intensity of the p-Ser97 and p-Tyr signals by subtracting the band intensity in the absence of ATP from that in the presence of ATP.

[10] = target: GST-DYRK1A-TS Y319E (Homo sapiens, UniProt Q13627, Y319E); assay: biochemical
Experimental: (§4) For the in vitro kinase assay, 2 μl (bed vol.) of the resin was incubated in a total volume of 25 μl of AR buffer containing 0.1 mg ml^−1 of BSA, 100 μM of ATP, 50 μM of DYRKtide peptide and the indicated concentrations of the small molecules, for 2 h at 37 °C. The consumption of ATP was measured with ADP-Glo Kinase Assay kit.

[11] = target: T1, DYRK1A; settings: PURExpress
Experimental: The PURExpress kit (New England Biolabs) was employed. DYRK1A was expressed at 37 °C for 40 min in a 12.5-μl reaction mixture containing 30 ng of pET28a(+)-FLAG-DYRK1A. […] For immunoprecipitation, 100 μl of PBS containing 0.5% Empigen BB, 0.5 mg ml^−1 BSA and 5 mM EDTA was added into the reaction mixture, then incubated with anti-FLAG (M2) beads at 4 °C for 6 h. The samples were prepared with an SDS-urea buffer, then analysed with SDS–PAGE followed by western blot (Supplementary Fig. 14). The band intensities were measured using the LAS-3000 (Fujifilm) and Multi Gauge software (Fujifilm).

[12] = target: T4, FLAG-DYRK1A (Homo sapiens, UniProt Q13627); assay: 2A peptide bicistronic FLAG-DYRK1A/HA-EGFP expression in HEK293 cells, western blot; assay type: cell-based
T4 construct: F2A peptide (remnant left on the upstream protein after ribosome skipping) (C); expressed in transfected cells; host or cells: HEK293 (Flp-In/T-REx), vector stably integrated
Experimental: After incubation for 5 h, total cell lysates were subjected to SDS–PAGE followed by western blot analysis using the corresponding antibodies against FLAG, HA and GAPDH. Representative data from the pentaplicate experiments are shown. […] Representative data from the triplicate experiments are shown. […] Total cell lysates were subjected to SDS–PAGE followed by western blot analysis. Representative data from the triplicate experiments are shown.

[13] = target: T5, human DYRK1B (Homo sapiens, UniProt Q9Y463); assay: RI-in vitro kinase assay with DYRKtide; assay type: biochemical
T5 construct: GST-tagged full-length human DYRK1B recombinant proteins; GST; purchased Life Technologies
Experimental: (§3) The RI-in vitro kinase assay was performed as described previously, with some modifications. […] GST-tagged full-length human DYRK1B recombinant proteins and His-tagged full-length human DYRK2 recombinant proteins were obtained from Life Technologies and Millipore, respectively. The kinase reaction was performed in a reaction mixture containing serially diluted inhibitors, 10 mM MOPS-KOH (pH 7.0), 10 mM magnesium acetate, 200 μM EDTA, 1 μM ATP, 0.1–0.4 μCi [γ-^32P]ATP, 5 μM DYRKtide and 0.1–1 μg recombinant kinase, for a final volume of 25 μl. The final concentration of DMSO was adjusted to 1%, regardless of the inhibitor concentration. The reaction mixture was incubated at 30 °C for 10 min and phosphoric acid (final 5%) was then added to stop the reaction. We then dispensed 25 μl of the reaction mixture onto P81, a phosphocellulose membrane (Whatman, GE Healthcare), and washed four times in 5% phosphoric acid. Cherenkov light from the incorporated ^32P was measured using a liquid scintillation counter. The kinase assay conditions, including the incubation period and the concentration of the kinases and substrates, were optimized to maintain linearity during the incubation. The net radioactivity was determined by subtracting the background count from the reaction mixture without kinase, and the data were expressed as a percentage of the control sample containing the solvent.

[14] = target: T3, 3xFLAG-DYRK1A / CDC37-nanoKAZ; settings: 24 h treatment; dose-dependent; 293T
Experimental: The wells were wash three times with ice-cold HENG buffer and then a luminescence assay was performed. […] The luminescence intensity was recorded at 0.1 s intervals for 10 s or 10 min. […] The relative amount of protein bound on the well was estimated from the absorbance.

[15] = target: GST-DYRK1A-TS WT (Homo sapiens, UniProt Q13627); assay: biochemical
Experimental: as §4

[16] = target: T6, human DYRK1A kinase domain (Homo sapiens, UniProt Q13627); assay: RI-in vitro kinase assay with DYRKtide; assay type: biochemical; settings: for IC50: DYRKtide substrate
T6 construct: His-tagged human DYRK1A kinase domain (residues 127–485) was produced in E. coli; His; made in house; host or cells: E. coli
Experimental: as §3
The amount of incorporated ^32P was calculated from the standard line. The Km, Ki and Vmax values were calculated with Prism5 software (GraphPad Software) using the competitive inhibition model.

[17] = target: T1, DYRK1A; settings: DYRKtide, 100 μM ATP; up to 32 μM compound
Experimental: For the in vitro kinase assay, 0.5 μl of the reaction mixture was incubated in a total volume of 25 μl of AR buffer containing 0.1 mg ml^−1 of BSA, 100 μM of ATP, 50 μM of DYRKtide peptide (Anaspec) and the indicated concentrations of the small molecules for 2 h at 37 °C. The consumption of ATP was measured with ADP-Glo Kinase Assay kit (Promega Corporation).

T2 sequence (Q92630 whole entry): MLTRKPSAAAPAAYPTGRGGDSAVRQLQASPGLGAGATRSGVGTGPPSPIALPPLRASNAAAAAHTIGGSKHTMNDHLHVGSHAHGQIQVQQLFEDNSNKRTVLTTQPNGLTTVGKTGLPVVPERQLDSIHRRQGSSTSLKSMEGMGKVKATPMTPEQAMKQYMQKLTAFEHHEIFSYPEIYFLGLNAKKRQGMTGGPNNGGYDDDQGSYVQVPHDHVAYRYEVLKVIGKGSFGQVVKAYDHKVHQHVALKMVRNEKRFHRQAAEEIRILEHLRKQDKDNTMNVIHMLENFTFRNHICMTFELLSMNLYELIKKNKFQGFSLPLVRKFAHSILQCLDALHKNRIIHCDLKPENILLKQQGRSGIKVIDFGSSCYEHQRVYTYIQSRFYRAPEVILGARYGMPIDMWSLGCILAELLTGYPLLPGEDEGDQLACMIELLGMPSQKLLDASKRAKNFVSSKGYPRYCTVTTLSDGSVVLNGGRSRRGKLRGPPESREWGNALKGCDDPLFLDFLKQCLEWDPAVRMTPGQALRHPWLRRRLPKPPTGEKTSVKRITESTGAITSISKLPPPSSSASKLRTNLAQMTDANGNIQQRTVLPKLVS
T5 sequence (Q9Y463 whole entry): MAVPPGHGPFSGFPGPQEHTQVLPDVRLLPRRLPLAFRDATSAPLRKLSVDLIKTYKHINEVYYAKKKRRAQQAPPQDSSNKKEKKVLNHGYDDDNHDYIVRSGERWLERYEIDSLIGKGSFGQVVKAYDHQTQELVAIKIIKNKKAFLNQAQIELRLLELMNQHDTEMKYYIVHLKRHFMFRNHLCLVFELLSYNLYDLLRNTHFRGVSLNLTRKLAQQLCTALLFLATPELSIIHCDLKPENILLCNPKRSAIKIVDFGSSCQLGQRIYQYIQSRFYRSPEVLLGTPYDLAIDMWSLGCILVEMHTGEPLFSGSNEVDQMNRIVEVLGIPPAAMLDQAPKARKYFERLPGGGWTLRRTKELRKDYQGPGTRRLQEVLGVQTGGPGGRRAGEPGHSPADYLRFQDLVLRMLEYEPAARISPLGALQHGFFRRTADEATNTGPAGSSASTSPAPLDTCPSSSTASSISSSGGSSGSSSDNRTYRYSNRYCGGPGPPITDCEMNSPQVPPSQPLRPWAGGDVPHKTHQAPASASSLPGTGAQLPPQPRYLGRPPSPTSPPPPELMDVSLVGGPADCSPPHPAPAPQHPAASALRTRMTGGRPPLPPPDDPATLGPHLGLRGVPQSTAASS

Q: Which “p-Ser97 signal in FLAG-DYRK1A” value [1] does the source give for `C=C1[C@@H](O)[C@@H]2O[C@]3(CC[C@H](/C=C/[C@@H](C)[C@@H]4CC(C)=C[C@@]5(O[C@H](C[C@@](C)(O)C(=O)O)CC[C@H]5O)O4)O3)CC[C@H]2O[C@@H]1[C@@H](O)C[C@H](C)[C@H]1O[C@@]2(CCCCO2)CC[C@H]1C` [okadaic acid] here?
A: did not increase

Q: For `COC[C@@H]([C@H](O)[C@H](O)C(=O)NCC[C@H](C)c1nc(/C=C/C[C@@H]2O[C@]3(C[C@@H](O)[C@@H]2C)O[C@H]([C@H](C[C@H](O)[C@H](C)[C@H](O)[C@H](C)/C=C(C)/C(C)=C/C=C/C(C)=C\C#N)OC)[C@H](OP(=O)(O)O)C3(C)C)co1)N(C)C` [calyculin A], which “p-Ser97 signal in FLAG-DYRK1A” value [1] is on record?
A: did not increase

Q: With `CC(C)[C@H](CO)Nc1nc(Nc2cccc(Cl)c2)c2ncn(C(C)C)c2n1` [Purvalanol A] as the molecule, how does the “inhibition of the mature kinase (Drosophila DYRK2)” value [2] read?
A: inhibited by both

Q: What about the “inhibition of the transitional intermediate of Drosophila DYRK2” value [3] of the same molecule?
A: inhibited

Q: With `CCN1/C(=C/C(C)=O)Sc2ccc(OC(C)=O)cc21` [proINDY] as the molecule, how does the “tadpoles developed normally when injected with DYRK1B mRNA” value ([4]; Fig. 9b) read?
A: 89.1%

Q: And the “expression of neural marker genes in DYRK1B-overexpressing embryos” value ([4]; RT-PCR, stage 25 head regions)?
A: increased

Q: And the “developmental malformation induced by DYRK1B” value ([4]; stage 40 tadpoles)?
A: repressed

Q: And the “rescue of embryos injected with DYRK1A mRNA (small eyes)” value ([5]; Fig. 9b)?
A: almost completely rescued

Q: And the “expression of neural marker genes in DYRK1A-overexpressing embryos” value ([5]; RT-PCR, stage 25 head regions)?
A: increased

Q: And the “developmental malformation induced by DYRK1A” value ([5]; stage 40 tadpoles)?
A: repressed

Q: With `CC1(C(=O)O)C2CCC(O2)C1(C)C(=O)O` (stereo not shown) [cantharidic acid] as the molecule, how does the “p-Ser97 signal in FLAG-DYRK1A” value [1] read?
A: increased

Q: With `CCN1/C(=C/C(C)=O)Sc2ccc(O)cc21` [INDY] as the molecule, how does the “TAU phosphorylation in Tc 2” value ([6]; 10 μM, compound added after accumulation of mature DYRK1A, HEK293) read?
A: suppressed

Q: And the “TAU phosphorylation in Tc 1” value ([6]; 10 μM, compound added before doxycycline induction, HEK293)?
A: suppressed

Q: What about the IC50 [7] of the same molecule?
A: 27.7 nM

Q: And the “interaction between DYRK1A and CDC37-nanoKAZ” value [8]?
A: weakened

Q: Which “inhibition of the mature kinase (Drosophila DYRK2)” value [2] does the source give for `Brc1c(Br)c(Br)c2[nH]nnc2c1Br` [TBB, 4,5,6,7-tetrabromo-1H-benzotriazole] here?
A: inhibited by both

Q: Which “TAU phosphorylation in HEK293 cells” value ([6]; Supplementary Fig. 2b) does the source give for `CCOc1cc(/C=C2\SC(=S)NC2=O)ccc1O` [RD0392] here?
A: suppresses

Q: And the IC50 ([9]; IC50, Ser97 autophosphorylation)?
A: 205 nM

Q: What about the IC50 ([9]; IC50, tyrosine phosphorylation) of the same molecule?
A: 514 nM

Q: What about the IC50 [10] of the same molecule?
A: 813 nM

Q: And the IC50 [7]?
A: 45.6 nM

Q: And the “signal from phosphorylated tyrosine in in vitro translation” value [11]?
A: no significant effects

Q: And the “Ser97 autophosphorylation in in vitro translation” value ([11]; compound added prior to transcription)?
A: suppressed

Q: And the “amount of FLAG-DYRK1A (destabilization)” value [12]?
A: did not decrease

Q: What about the IC50 [13] of the same molecule?
A: 53.3 nM

Q: What about the “interaction between DYRK1A and CDC37-nanoKAZ” value [14] of the same molecule?
A: weakened

Q: And the IC50 [15]?
A: 325 nM

Q: And the Ki [16]?
A: 132 nM

Q: And the IC50 ([16]; IC50, in vitro kinase activity of recombinant DYRK1A, Fig. 1f, n=4)?
A: 60.2 nM

Q: What about the IC50 ([16]; IC50, kinase activity of recombinant DYRK1A, Supplementary Fig. 13d, n=3) of the same molecule?
A: 25.6 nM

Q: What about the “substrate phosphorylation by DYRK1A produced in PURExpress” value [17] of the same molecule?
A: inhibited

Reference: paper PMC4844702, “Selective inhibition of the kinase DYRK1A by targeting its folding process” (Nature Communications, 2016)
